According to US12109204B2, “Methods for treating muscular dystrophies” (The Regents of the University of California, priority 2018, dated 2024):

Assays:
Format in all cases: cell-based, murine
[1] = test system: hSSPN-EGFP myotubes (human sarcospan promoter reporter in C2C12); experiment: hSSPN-EGFP reporter myotube assay (high-content imaging); settings: doses between 3.9 nm to 1 μM, 48 hours (FIG. 10a)
[2] = test system: hSSPN-EGFP myotubes (human sarcospan promoter reporter in C2C12); experiment: as above
Procedure: C2C12 immortalized murine myoblasts cultured in growth media consisting of DMEM (Gibco) with 20% Fetal Bovine Serum (Sigma-Aldrich) at 37° C. with 5% CO2 were transfected with the hSSPN-EGFP or hSSPN-Luciferase linearized plasmids using Lipofectamine 3000 Transfection Reagent (Thermo Fisher Scientific). Transfected cells were selected using 800 μg/ml of G418 (Sigma-Aldrich) for 4 weeks to generate stable cell lines expressing reporter protein under control of the human SSPN promoter.
hSSPN-EGFP myoblasts were seeded at 500 cells per well in 50 μl of growth media in 384-well black, clear bottom microplates (Greiner) using a Multidrop 384 (Thermo Fisher Scientific) and incubated for 3 days. Upon reaching confluency, the growth media was replaced with 50 μl of differentiation media consisting of DMEM with 2% horse serum (Sigma-Aldrich) using an EL406 combination washer dispenser (Biotek). At day 2 of differentiation, the media on the cells was aspirated, left with a residual volume of 10 μl, and replaced with 30 μl of fresh differentiation media. 0.5 μl of small molecule in DMSO or DMSO alone (for vehicle and positive control wells) was added to each well using a Biomek Fx (Beckman). To ensure proper mixing of the DMSO, 50 μl of additional differentiation media was added to all wells except the positive control treated wells, which instead received 50 μl of media containing insulin transferrin selenium (ITS, Gibco) to reach a final concentration of 1% ITS. The final concentration of drug in each treated well was 5.5 μM in 0.55% DMSO and 0.55% DMSO for vehicle and positive control treated wells. After 48 hours of incubation, the media was replaced with Fluorobrite DMEM (Gibco) and each plate was imaged using ImageXpress Micro Confocal High Content Imaging System (Molecular Devices). The fluorescent intensity of imaged cells was determined using MetaXpress Analysis software (Molecular Devices). Analysis setting were as follows: top hat (size: 12, filter shape: circle), adaptive threshold (source: top hat, minimum width: 10, maximum width: 800, intensity above local background: 500), filter mask (filter type: minimum area filter, minimum value: 500). […]

[3] = test system: SSPN protein; experiment: SSPN protein immunoblot in C2C12 wild-type myotubes; settings: C2C12 cells, 1 μM-10 μM, 48 hours, immunoblot normalized to GAPDH (FIG. 10e)
Procedure: Cells were treated for 48 hours beginning at day 2 of differentiation with DMSO (vehicle control, ATCC), felodipine (Sigma), nilvadipine (Sigma), alloxazine (Sigma), GW5074 (Sigma), methylthioadenosine (Santa Cruz Biotechnology), or ezutromid (Cayman Chemicals) diluted in cell type specific differentiation media at doses listed in the figures. For gene expression studies, each treatment was performed in duplicate. For protein studies, each treatment was performed with single or double replicates. C2C12 murine myotubes treated for 48 hours were lysed using RIPA buffer (Thermo Fisher Scientific) containing a protease inhibitor cocktail (0.6 μg/ml pepstatin A, 0.5 μg/ml aprotinin, 0.5 μg/ml leupeptin, 0.1 mM PMSF, 0.75 mM benzamidine, 5 μM calpain I inhibitor, 5 μM calpeptin). […] The supernatant was collected, quantified for protein concentration using the DC protein assay (Bio-Rad), and normalized to 2 mg/ml in water and Laemmli sample buffer with a final concentration of 10% glycerol (Sigma-Aldrich), 5% beta-mercaptoethanol (Sigma-Aldrich), 3% sodium dodecyl sulfate (Sigma-Aldrich), and 0.05% bromophenol blue (Sigma-Aldrich). […] Autoradiography films were developed using a SRX-101A tabletop processor (Konica Minolta), scanned to a digital file, and analyzed by densitometry of bands using ImageJ version 1.51s. […]

[4] = test system: mdx myotubes; experiment: Fusion index in mdx myotubes; settings: mdx myotubes (FIG. 12c-d)

For `CCOC(=O)C1=C(C)NC(C)=C(C(=O)OC)C1c1cccc(Cl)c1Cl` (stereo not shown) [Felodipine, 5-O-ethyl 3-O-methyl 4-(2,3-dichlorophenyl)-2,6-dimethyl-1,4-dihydropyridine-3,5-dicarboxylate], the “hSSPN-EGFP reporter activity, counterscreen” value [1] was “increased activity”, the “fluorescence intensity over vehicle, primary screen hit call” value ([2]; primary screen of 3,200 molecules, 5.5 μM, 48 hours, n=1, hit cutoff 1.4-fold) was “hits” and the “hSSPN-EGFP RFU, Plate 1” value ([2]; retest of screen hits at 5.5 μM, Plate 1, n=24 per plate) was 1.4 RFU. The “hSSPN-EGFP RFU, Plate 2” value ([2]; retest of screen hits at 5.5 μM, Plate 2, n=24 per plate) was 1.4 RFU, the SSPN protein levels [3] was “increases sarcospan protein levels” and the SSPN protein levels ([3]; listed as felodipine) was “increase in SSPN protein levels”. The “fusion index (nuclei in myosin heavy chain positive area/total nuclei in field)” value [4] was “does not increase fusion index”.
